Source: ChEMBL document CHEMBL3588854, “Synthesis of 5-isoxazol-3-yl-pyrimidine nucleosides as potential antileishmanial agents” (Bioorg Med Chem Lett, 2015)
Activity calls are given as the source filed them. No cut-off for these calls is given here.

The compounds below were run on Leishmania donovani (assay: Antileishmanial activity against amastigote stage of Leishmania donovani MHOM/ET/67/HU3 infected in mouse RAW264.7 cells assessed as inhibition of parasite growth after 48 hrs by SYBR green I incorporation assay). Conditions: not given.
Type: functional, organism-based

In the case of CC(=O)OC[C@H]1O[C@@H](n2cc(-c3cc(-c4ccccc4)on3)c(=O)[nH]c2=O)C[C@@H]1OC(C)=O, the “growth inhibition (GI)” value is reported as “inactive”.
With CC(=O)OC[C@H]1O[C@@H](n2cc(-c3cc(-c4ccccc4)on3)c(=O)[nH]c2=O)[C@H](OC(C)=O)[C@@H]1OC(C)=O the “growth inhibition (GI)” value was “inactive”.
For CC(=O)OC[C@@H]1C=C[C@H](n2cc(-c3cc(-c4ccccc4)on3)c(=O)[nH]c2=O)O1, the “growth inhibition (GI)” value was “inactive”.
In the case of CC(=O)OC[C@H]1O[C@@H](n2cc(-c3cc(-c4ccccc4)on3)c(=O)[nH]c2=O)C[C@@H]1N=[N+]=[N-], the “growth inhibition (GI)” value is reported as “inactive”.
For CC(=O)OC[C@H]1O[C@@H](n2cc(-c3cc(CBr)on3)c(=O)[nH]c2=O)C[C@@H]1OC(C)=O, the “growth inhibition (GI)” value was “inactive”.
In the case of CC(=O)OC[C@H]1O[C@@H](n2cc(-c3cc(-c4ccc(Br)cc4)on3)c(=O)[nH]c2=O)C[C@@H]1OC(C)=O, the “growth inhibition (GI)” value is reported as “inactive”.

Same assay, conditions: MHOM/ET/67/HU3, RAW264.7, 48 h

Point of comparison: CC(=O)OC[C@H]1O[C@@H](n2cc(-c3cc(-c4ccccc4)on3)c(N)nc2=O)C[C@@H]1OC(C)=O, IC50 1.61 µM. Against it:
- CC(=O)OC[C@H]1O[C@@H](n2cc(-c3cc(CO)on3)c(N)nc2=O)C[C@@H]1OC(C)=O — 1.9-fold higher, 3.13 µM
- CCCCCCCCc1cc(-c2cn([C@H]3C[C@H](O)[C@@H](CO)O3)c(=O)[nH]c2=O)no1 — higher, > 12.5 µM
- Nc1nc(=O)n([C@H]2C[C@H](O)[C@@H](CO)O2)cc1-c1cc(-c2ccccc2)on1 — 2.6-fold lower, 0.61 µM
- CC(=O)OC[C@H]1O[C@@H](n2cc(-c3cc(-c4ccc(F)cc4)on3)c(=O)[nH]c2=O)C[C@@H]1N=[N+]=[N-] — higher, > 12.5 µM
- CCCCCCCCCCCCCCCCOP(=O)([O-])OCC[N+](C)(C)C [MILTEFOSINE] — 3.6-fold higher, 5.75 µM
- O=c1[nH]c(=O)n([C@@H]2O[C@H](CO)[C@@H](O)[C@H]2O)cc1-c1cc(-c2ccc(F)cc2)on1 — within 1.5-fold, 1.47 µM
- CC(=O)OC[C@H]1O[C@@H](n2cc(-c3cc(CO)on3)c(=O)[nH]c2=O)C[C@@H]1N=[N+]=[N-] — higher, > 12.5 µM
- O=c1[nH]c(=O)n([C@H]2C[C@H](O)[C@@H](CO)O2)cc1-c1cc(CO)on1 — 2.2-fold lower, 0.73 µM
- CC(=O)OC[C@H]1O[C@@H](n2cc(-c3cc(-c4ccc(C)cc4)on3)c(=O)[nH]c2=O)C[C@@H]1OC(C)=O — within 1.5-fold, 1.7 µM
- [N-]=[N+]=N[C@H]1C[C@H](n2cc(-c3cc(CO)on3)c(=O)[nH]c2=O)O[C@@H]1CO — 3.3-fold lower, 0.49 µM
- Cc1ccc(-c2cc(-c3cn([C@H]4C[C@H](O)[C@@H](CO)O4)c(=O)[nH]c3=O)no2)cc1 — 2.6-fold lower, 0.61 µM
- C[C@@H]1[C@H](O)[C@@H](C)/C=C/C=C/C=C/C=C/C=C/C=C/C=C/[C@H](O[C@@H]2O[C@H](C)[C@@H](O)[C@H](N)[C@@H]2O)C[C@@H]2O[C@](O)(C[C@@H](O)C[C@@H](O)[C@H](O)CC[C@@H](O)C[C@@H](O)CC(=O)O[C@H]1C)C[C@H](O)[C@H]2C(=O)O [AMPHOTERICIN B] — 5.2-fold lower, 0.31 µM
- CCCCCCCCc1cc(-c2cn([C@H]3C[C@H](OC(C)=O)[C@@H](COC(C)=O)O3)c(=O)[nH]c2=O)no1 — 13-fold higher, 20.9 µM
- CC(=O)OC[C@H]1O[C@@H](n2cc(-c3cc(-c4ccc(F)cc4)on3)c(=O)[nH]c2=O)[C@H](OC(C)=O)[C@@H]1OC(C)=O — 2.1-fold lower, 0.78 µM
- CC(=O)OC[C@H]1O[C@@H](n2cc(-c3cc(-c4ccc(F)cc4)on3)c(=O)[nH]c2=O)C[C@@H]1OC(C)=O — 2.3-fold lower, 0.7 µM
- O=c1[nH]c(=O)n([C@H]2C[C@H](O)[C@@H](CO)O2)cc1-c1cc(-c2ccccc2)on1 — 2.1-fold lower, 0.76 µM
- CC(=O)OC[C@H]1O[C@@H](n2cc(-c3cc(CO)on3)c(=O)[nH]c2=O)C[C@@H]1OC(C)=O — 2.1-fold higher, 3.39 µM
- O=c1[nH]c(=O)n([C@H]2C=C[C@@H](CO)O2)cc1-c1cc(-c2ccccc2)on1 — 2.8-fold higher, 4.56 µM
- O=c1[nH]c(=O)n([C@H]2C[C@H](O)[C@@H](CO)O2)cc1-c1cc(-c2ccc(F)cc2)on1 — 2.8-fold lower, 0.58 µM
